Read-outs that look alike come from different tables or passages of the source. Each block holds one compound with its values, some of them ahead of it.
Tests used:
[1] = Microsomal stability, mouse liver microsomes (S9), Phase-I (CYP450-NADPH); assay type: in vitro ADME; conditions: 5 µM
Procedure: (§1) Mouse or human liver microsomes (S9), reduced nicotinamide adenine dinucleotide phosphate (NADPH) generating system solutions and uridine glucuronosyltransferase (UGT) reaction mix (BD Biosciences) were kept at −80 °C. The test compounds and reference compound diclofenac were formulated in DMSO at […]. The assay was carried out based on the BD Biosciences Guidelines for Use (TF000017 Rev1.0) with minor adaptations. The metabolic stability of the compounds was studied through the CYP450 superfamily (Phase-I metabolism) by fortification with NADPH and through UGT enzymes (Phase-II metabolism) by fortification with uridine diphosphate glucuronic acid (UDPGA). For CYP450 and other NADPH dependent enzymes, the compounds were incubated at 5 µM together with 0.5 mg/mL S9 in potassium phosphate buffer in a reaction started by the addition of 1 mM NADP. At defined time points, 20 µL was withdrawn from the reaction mixture and 80 µL cold acetonitrile (ACN) was added to inactivate the enzymes and precipitate the protein. The mixture was vortexed for 30 s and centrifuged at 4 °C for 5 min to collect the supernatant. For UGT enzymes, the compounds were incubated at 5 µM together with 0.5 mg/mL S9 in a reaction started by the addition of 2 mM UDPGA cofactor. The loss of parent compound was determined using liquid chromatography (UPLC) (Waters Aquity^TM) coupled with tandem quadrupole mass spectrometry (MS^2) (Waters Xevo^TM), equipped with an electrospray ionisation (ESI) interface and operated in multiple reaction monitoring (MRM) mode.

[2] = Microsomal stability, mouse liver microsomes (S9), Phase-II (UGT enzymes); assay type: in vitro ADME; conditions: 5 µM
Procedure: as §1

[3] = Microsomal stability, human liver microsomes (S9), Phase-I (CYP450-NADPH); assay type: in vitro ADME; conditions: 5 µM
Procedure: as §1

[4] = Microsomal stability, human liver microsomes (S9), Phase-II (UGT enzymes); assay type: in vitro ADME; conditions: 5 µM
Procedure: as §1

[5] = system: Schistosoma mansoni mature worms; assay: In vitro S. mansoni worm killing; set-up: key to Worm killing (male worms) / Worm killing (female worms): % worm mortality = dead worms / total worms × 100; conditions: for killing at 5 µM / killing at 10 µM / killing at 25 µM / killing at 50 µM / killing at 100 µM / EC50: Schistosoma mansoni; for killing at 5 µM / killing at 10 µM / killing at 25 µM / killing at 50 µM / killing at 100 µM: 120 h, read-out: Worm killing (% of total); for Worm killing (female worms) / Worm killing (male worms): day 5
Procedure: The percentage reduction of worm or egg burden in each treated group was calculated. […] Results are expressed as mean ± SEM. A two-tailed, unpaired Student’s t-test was used to detect the significance of difference between the means of different groups. […] Stock solutions of 5 mM PZQ and the quinazoline derivatives 2–13 were prepared in DMSO. Concentrations of 100 µM, 50 µM, 25 µM, 10 µM and 5 µM were freshly prepared on the day of experiment in RPMI-1640 medium. All compounds were initially tested at 100 and 50 µM; those showing worm killing were further tested at 25, 10 and 5 µM. Worms were obtained from SBSC of TBRI. Six to eight worms were placed in 12-well tissue culture plates and fresh RPMI-1640 medium (supplemented with glutamine, 20% newborn calf serum and streptomycin, penicillin, and gentamicin), containing the indicated concentration of the test compound was added[20]^,[21]. Worms were incubated overnight in a CO2 incubator at 37 °C. On the 2nd day, worms were examined by microscopy, washed three times with normal saline, fresh medium was added and the incubation was continued. On the 3rd day, worm motility was observed and on the 4th day, medium was changed again. On day 5 (end of the observation period), worms were microscopically examined for their motility and appearance. Each concentration was tested in duplicate, and the final recording of percent worm mortality was determined as the number of dead worms [contracted and opaque] divided by the total number of worms × 100. Negative controls used medium without additions or medium with 2% DMSO; positive control media containing identical concentrations of PZQ were tested in parallel.

[6] = system: Schistosoma mansoni worm couples; assay: S. mansoni ovipositing capacity and coupling; conditions: for inhibition at 5 µM / inhibition at 10 µM / inhibition at 25 µM / inhibition at 50 µM / inhibition at 100 µM: Schistosoma mansoni, 120 h, read-out: Reduction in number of eggs (%)
Procedure: Stock solutions of 5 mM PZQ and the quinazoline derivatives 2–13 were prepared in DMSO. Concentrations of 100 µM, 50 µM, 25 µM, 10 µM and 5 µM were freshly prepared on the day of experiment in RPMI-1640 medium. All compounds were initially tested at 100 and 50 µM; those showing worm killing were further tested at 25, 10 and 5 µM. 12-well tissue culture plates were used, each well containing 6–8 worms with at least one worm couple. Worms were incubated overnight in a CO2 incubator at 37 °C. Each concentration was tested in duplicate wells. On day 4, eggs were counted and discarded and the medium was changed. On day 5 (end of observation period) newly deposited eggs were counted. The final egg number is the total count of days 4 and 5 for each concentration tested and the final recording of the percentage of egg reduction was determined as [the total number of eggs on days 4 and 5 of control – the total number of eggs on days 4 and 5 of treated]/the total number of eggs on days 4 and 5 of control × 100.

[7] = 5 µM, day 5, mature (6 weeks old) worms, dose-titration (Table 3)
[8] = 10 µM, day 5, mature (6 weeks old) worms, dose-titration (Table 3)
[9] = 25 µM, day 5, mature (6 weeks old) worms, dose-titration (Table 3)
[10] = 50 µM, day 5, initial test (Table 2)
[11] = 50 µM, day 5, mature (6 weeks old) worms, dose-titration (Table 3)
[12] = 100 µM, day 5, initial test (Table 2)
[13] = 100 µM, day 5, mature (6 weeks old) worms, dose-titration (Table 3)
[14] = males and females together, read-out: EC50 (worm killing)
[15] = read-out: EC50 (worm killing, female worms)
[16] = read-out: EC50 (worm killing, male worms)
[17] = 10 µM, dose-titration (Table 3)
[18] = 25 µM, dose-titration (Table 3)
[19] = 50 µM, dose-titration (Table 3)
[20] = 100 µM, dose-titration (Table 3)

% Parent compound remaining upon incubation ([1]; 0 h): 100%
% Parent compound remaining upon incubation ([1]; 0.25 h): 91%
% Parent compound remaining upon incubation ([1]; 0.5 h): 51%
% Parent compound remaining upon incubation ([1]; 1 h): 44%
% Parent compound remaining upon incubation ([2]; 0 h): 100%
% Parent compound remaining upon incubation ([2]; 0.25 h): 101%
% Parent compound remaining upon incubation ([2]; 0.5 h): 103%
% Parent compound remaining upon incubation ([2]; 1 h): 105%
% Parent compound remaining upon incubation ([3]; 0 h): 100%
% Parent compound remaining upon incubation ([3]; 0.25 h): 104%
% Parent compound remaining upon incubation ([3]; 0.5 h): 61%
% Parent compound remaining upon incubation ([3]; 1 h): 67%
% Parent compound remaining upon incubation ([4]; 0 h): 100%
% Parent compound remaining upon incubation ([4]; 0.25 h): 94%
% Parent compound remaining upon incubation ([4]; 0.5 h): 95%
% Parent compound remaining upon incubation ([4]; 1 h): 97%
Structure (SMILES): COc1ccc(Cn2c(=O)c3cc(Cl)ccc3n(Cc3ccc(C(F)(F)F)cc3)c2=O)cc1 [compound 9, 6-Chloro-1-(4-(trifluoromethyl)benzyl)-3-(4-methoxybenzyl)quinazolin-2,4(1H,3H)-dione]
killing at 5 µM [5, 7]: 0%
killing at 10 µM [5, 8]: 0%
killing at 25 µM [5, 9]: 0%
killing at 50 µM [5, 10]: 29%
killing at 50 µM [5, 11]: 88%
killing at 100 µM [5, 12]: 100%
killing at 100 µM [5, 13]: 100%
EC50 [5, 14]: 47 µM
EC50 [5, 15]: 49 µM
EC50 [5, 16]: 41 µM
Worm killing (female worms) ([5]; 5 µM): 0
Worm killing (female worms) ([5]; 10 µM): 0
Worm killing (female worms) ([5]; 25 µM): 0
Worm killing (female worms) ([5]; 50 µM): 75
Worm killing (female worms) ([5]; 100 µM): 100
Worm killing (male worms) ([5]; 5 µM): 0
Worm killing (male worms) ([5]; 10 µM): 0
Worm killing (male worms) ([5]; 25 µM): 0
Worm killing (male worms) ([5]; 50 µM): 100
Worm killing (male worms) ([5]; 100 µM): 100
Uncoupling ([6]; 5 µM, dose-titration (Table 3)): No
Uncoupling [6, 17]: No
Uncoupling [6, 18]: Yes
Reduction in number of eggs (%) [6, 19]: 100%
Uncoupling [6, 19]: Yes
Uncoupling ([6]; 50 µM, initial test (Table 2)): Yes
Reduction in number of eggs (%) [6, 20]: 100%
Uncoupling [6, 20]: Yes
Uncoupling ([6]; 100 µM, initial test (Table 2)): Yes
inhibition at 5 µM ([6]; 5 µM, dose-titration (Table 3)): 67%
inhibition at 10 µM [6, 17]: 73%
inhibition at 25 µM [6, 18]: 100%
inhibition at 50 µM ([6]; 50 µM, initial test (Table 2)): 100%
inhibition at 100 µM ([6]; 100 µM, initial test (Table 2)): 100%

% Parent compound remaining upon incubation ([1]; 0 h): 100%
% Parent compound remaining upon incubation ([1]; 0.25 h): 85%
% Parent compound remaining upon incubation ([1]; 0.5 h): 39%
% Parent compound remaining upon incubation ([1]; 1 h): 32%
% Parent compound remaining upon incubation ([2]; 0 h): 100%
% Parent compound remaining upon incubation ([2]; 0.25 h): 89%
% Parent compound remaining upon incubation ([2]; 0.5 h): 83%
% Parent compound remaining upon incubation ([2]; 1 h): 91%
% Parent compound remaining upon incubation ([3]; 0 h): 100%
% Parent compound remaining upon incubation ([3]; 0.25 h): 108%
% Parent compound remaining upon incubation ([3]; 0.5 h): 83%
% Parent compound remaining upon incubation ([3]; 1 h): 65%
% Parent compound remaining upon incubation ([4]; 0 h): 100%
% Parent compound remaining upon incubation ([4]; 0.25 h): 102%
% Parent compound remaining upon incubation ([4]; 0.5 h): 106%
% Parent compound remaining upon incubation ([4]; 1 h): 98%
Structure (SMILES): COc1cc2c(=O)n(Cc3ccc(F)cc3)c(=O)n(Cc3ccc(C(F)(F)F)cc3)c2cc1OC [compound 10, 3-(4-Fluorobenzyl)-1-(4-(trifluoromethyl)benzyl)-6,7-dimethoxyquinazolin-2,4(1H,3H)-dione]
killing at 5 µM [5, 7]: 0%
killing at 10 µM [5, 8]: 8%
killing at 25 µM [5, 9]: 50%
killing at 50 µM [5, 10]: 93%
killing at 50 µM [5, 11]: 100%
killing at 100 µM [5, 12]: 100%
killing at 100 µM [5, 13]: 100%
EC50 [5, 14]: 25 µM
EC50 [5, 15]: 26 µM
EC50 [5, 16]: 20 µM
Worm killing (female worms) ([5]; 5 µM): 0
Worm killing (female worms) ([5]; 10 µM): 0
Worm killing (female worms) ([5]; 25 µM): 33
Worm killing (female worms) ([5]; 50 µM): 100
Worm killing (female worms) ([5]; 100 µM): 100
Worm killing (male worms) ([5]; 5 µM): 0
Worm killing (male worms) ([5]; 10 µM): 14
Worm killing (male worms) ([5]; 25 µM): 63
Worm killing (male worms) ([5]; 50 µM): 100
Worm killing (male worms) ([5]; 100 µM): 100
Uncoupling ([6]; 5 µM, dose-titration (Table 3)): No
Uncoupling [6, 17]: No
Uncoupling [6, 18]: Yes
Uncoupling [6, 19]: Yes
Uncoupling ([6]; 50 µM, initial test (Table 2)): Yes
Uncoupling [6, 20]: Yes
Uncoupling ([6]; 100 µM, initial test (Table 2)): Yes
inhibition at 5 µM ([6]; 5 µM, dose-titration (Table 3)): 77%
inhibition at 10 µM [6, 17]: 80%
inhibition at 25 µM [6, 18]: 100%
inhibition at 50 µM ([6]; 50 µM, initial test (Table 2)): 100%
inhibition at 100 µM ([6]; 100 µM, initial test (Table 2)): 100%
